Laboratory results reported in ChEMBL document CHEMBL1157539, “Thousands of chemical starting points for antimalarial lead identification” (Nature, 2010).

System: Plasmodium falciparum
Assay: GSK_TCMDC: Inhibition of Plasmodium falciparum 3D7 in whole erythrocytes, using parasite LDH activity as an index of growth.
Assay type: functional, organism-based
Conditions: Plasmodium falciparum, 3D7

Structure (SMILES) | XC50 [nM]
COc1ccc(C=NN=c2cc(C)[nH]c3ccccc23)c2ccccc12 | 752
NC1=NC2(CCCC2)C(c2ccc(Cl)c(Cl)c2)C(N)=N1 (configuration not stated) | 987
Cc1nnc(Sc2ncnc3scc(-c4ccc(F)cc4)c23)s1 | 811
CO/C(=C\C=C\c1cc2cc(Cl)c(Cl)cc2[nH]1)C(=O)NCC(C)(C)CN(C)C | 1160
CC(C)c1cccc(C(C)C)c1NC(=O)NNC(=O)c1ccc(CCN2CCC(c3nc(COCC(F)(F)F)c(-c4ccc(F)cc4)o3)CC2)cc1 | 1090
COc1ccc(Cn2cncc2CN(CCC(C)C)C(=O)c2ccc(Cl)nc2Cl)cc1 | 1040
CCCCOC(=O)c1ccc(NC(=O)Nc2ccc(Cn3ncc(N4CCCNCC4)c(Cl)c3=O)cc2)cc1 | 739
Cc1cc(Oc2ccc(-n3ccnc3)cc2)nc(N2CCN(CCCN3CCCC3)CC2)n1 | 928
O=C(/C=C/c1ccc(Cl)c(Cl)c1)NCCCCCN1CCCC(CNC(=O)Nc2ccc(C(F)(F)F)cc2)C1 (configuration not stated) | 668
O=C(O[C@@H]1CN[C@H](C#Cc2cc3ncnc(Nc4ccc5c(cnn5Cc5cccc(F)c5)c4)c3s2)C1)N1CCCC1 | 757
c1cc(CNCC2CCCO2)cc(-c2cccc(-c3nc4ccccc4[nH]3)c2)c1 (configuration not stated) | 859
CN1CCC(N(C)C(=O)C=Cc2cn(-c3ccccc3)nc2-c2cc3ccccc3o2)CC1 | 1340
CCc1nc2ccc(C(=O)OC)nc2n1Cc1ccc2oc(-c3ccccc3N)c(Br)c2c1 | 822
CC1CC(C)CN(CCCNc2ccc(C(=O)Nc3ccc(C(F)(F)F)cc3)cc2[N+](=O)[O-])C1 (configuration not stated) | 203
CCOC(=O)c1ccc(NC(=O)Nc2ccc(-c3ccc(-c4nc5cccc(C)c5[nH]4)s3)cc2)cc1 | 199
CN1CCN(c2cc(-c3cccc(C(F)(F)F)c3)nc(-c3ccncc3)n2)CC1 | 731
Nc1ccc2nc(C=Cc3ccc(Cl)cc3)[nH]c2c1 | 941
Nc1ncc(-c2cn[nH]c2)cc1-c1nc2cc(Cl)cnc2[nH]1 | 915
CCCCCCCN(Cc1ccc(OC(C)(C)C(=O)OCC)cc1)C(=O)Cc1ccc(F)cc1F | 1030
CC(C)(C)c1ccc(CNC(=O)/C=C/c2ccc(-c3nc4cc(C(C)(C)C)ccc4[nH]3)cc2)cc1 | 545
Nc1nnc(-c2ccc(Cl)c(Br)c2)c(N)n1 | 1040
O=C(CSc1nc(-c2ccccc2Cl)ns1)Nc1cccc(Cl)c1 | 787
CCCc1cc(Cc2cnc(N)nc2N)cc(CCC)c1OCCCCC(=O)O | 195
CCc1cn(C)c2c(N3CCCC3=O)cc(C(=O)N[C@@H](Cc3ccccc3)[C@H](O)CNCc3cccc(OC)c3)cc12 | 784
Cn1cc(C(=O)Nc2cccc(-c3cccc(-c4nc5ccccc5[nH]4)c3)c2)n(C)c1=O | 715

Structure (SMILES) | XC50 [nM]
O=C(CC1SC(N2N=C(c3cccs3)CC2c2ccccc2)=NC1=O)Nc1ccccc1F (configuration not stated) | 1090
CCCCCCC(C)c1cc(O)c2c(c1)OC(C)(C)c1ccncc1-2 (configuration not stated) | 797
COc1cc(NC(=O)c2cccs2)c(C(=O)NCc2ccc(C)cc2)cc1OC | 1360
CCOC(=O)c1nc(-c2cccc(F)c2)[nH]c1N | 748
C[C@H](Cc1ccc(S(=O)(=O)c2ccc(C[C@@H](C)NC[C@H](O)c3cccc(Cl)c3)cc2)cc1)NC[C@H](O)c1cccc(Cl)c1 | 258
CCc1cccc(NC(=O)/C=C/c2ccc3c(c2)CN(C)CC3)c1 | 767
COc1cc(C(=O)Nc2ccc(-c3nc4ccccc4[nH]3)cc2)cc(OC)c1OC | 982
Cc1cc(NCCc2ccccc2)nc(NC(=N)Nc2ccc(Cl)cc2)n1 | 232
N#Cc1cccc(NC(=O)NC2CCN(CCCCCNC(=O)/C=C/c3ccc(Cl)c(Cl)c3)CC2)c1 | 707
CC1CC1C(=O)NC1CCN(CC2(c3ccccc3)CCCCC2)CC1 (configuration not stated) | 637
O=C(N[C@@H](CC1CCCCC1)C(=O)NC1CCCc2ccccc21)c1ccc(O)c(-c2ccc(Cl)c(Cl)c2)c1 (some centres not stated) | 195
O=[N+]([O-])c1ccc(C=NNc2nc3ccccc3[nH]2)cc1 | 283
COC(=O)c1cc(OC)c(OC)cc1NC(=O)NC12CC3CC(CC(C3)C1)C2 | 879
Cn1cncc1C(=O)Nc1ccc(-c2cccc(-c3nc4cc(F)ccc4[nH]3)c2)cc1 | 818
N#Cc1cccc(C(=O)Nc2cccc(-c3ccc(C(=O)Nc4cccnc4)cc3)c2)c1 | 693
COc1cccc(NC(=O)NCCNc2ccnc(Nc3ccc(F)cc3)n2)c1 | 917
NC1CCN(CCNCc2cccc(-c3ccc(-c4nc5cc(F)ccc5[nH]4)cc3)c2)C1 (configuration not stated) | 734
CC(=O)Oc1c(Br)c(C)nc(C)c1-c1ccc(Oc2ccc(OC(F)(F)F)cc2)cc1 | 131
Oc1cc(NCCCNC2CCc3c(Cl)cc(Cl)cc32)nc2ccccc12 (configuration not stated) | 934
Cc1ccc(-c2nnc(Nc3ccc(OCC(N)=O)cc3)c3ccccc23)cc1S(=O)(=O)NCC1CCCO1 (configuration not stated) | 753
CC[C@H]1CN(Cc2ccccc2Br)CC[C@H]1CCCc1ccnc2ccc(O)cc12 | 1000
O=C(/C=C/c1ccc(Cl)c(Cl)c1)NCCCCCN1CCC(NC(=O)Nc2cc(Cl)ccc2Cl)CC1 | 433
N#Cc1ccc(CN2CCC(Oc3ccc(NC(=O)c4ccsc4)cc3Cl)C2)cc1 (configuration not stated) | 674
CN(C)CCOc1cccc(NC(=O)Nc2ccc(-c3ccccc3)cc2)c1 | 878
CC(C)(C)c1ccc2nccc(Nc3cccc(O)c3)c2c1 | 973

Structure (SMILES) | XC50 [nM]
O=C(NCCCCN1CCC2c3cccc(O)c3CCC21)c1ccc(-c2ccccc2)cc1 (configuration not stated) | 1380
CC(C)CNCc1cccc(-c2ccc(CN(C(=O)c3cccs3)C3CCN(Cc4ccccc4)CC3)cc2)c1 | 1010
CN(C)Cc1ccc2cc(NC(=O)c3ccc(-c4ccc(Cl)cc4)cc3)ccc2n1 | 849
COc1ccc(CNc2nc(NCc3ccc(C(F)(F)F)cc3)c3cc(OC)c(OC)cc3n2)cc1OC | 210
CN1CCCN(c2ccnc3cc4c(cc23)N(C(=O)c2ccccc2Cl)CC4)CC1 | 1180
CC(=O)Oc1c(C2CCN(CCCCNC(=O)c3ccc(NC(=O)c4ccc(Cl)cc4)cc3)CC2)ccc2c1CCCC2 | 764
O=C(Nc1ccccc1)N1CCOC(CCN2CCC(F)(F)CC2)(c2ccc(Cl)c(Cl)c2)C1 (configuration not stated) | 185
COc1cccc2sc(N3CCN(C(=O)c4ccc([N+](=O)[O-])o4)CC3)nc12 | 869
C=CCn1c(Sc2ccc(C#N)c([N+](=O)[O-])c2)nnc1-c1ccc(Cl)cc1 | 667
Cc1cc(CNCCCCCCCNCc2ccc(-c3ccccc3)cc2)ccc1O | 493
CCN(CC)CCCC(C)Nc1ccnc2cc(Cl)ccc12 (configuration not stated) [CHLOROQUINE PHOSPHATE] | 178
CCC1(C)CC(CCNCc2ccccc2O)(c2ccc(C)cc2)CCO1 (configuration not stated) | 38.8
Cc1c(CNCCCNc2nc3ccccc3[nH]2)sc(C(F)F)c1Br | 293
c1ccc2c(NCCOCCNc3c4ccccc4nc4ccccc34)c3ccccc3nc2c1 | 878
Clc1ccc(Nc2nc3nonc3nc2Nc2ccc(Cl)c(Cl)c2)cc1 | 645
Cc1sc2ncnc(Sc3nc4ccccc4[nH]3)c2c1C | 255
O=C(c1ccccc1[N+](=O)[O-])N(Cc1ccccc1)c1ccccn1 | 192
O=C(Nc1cccc(-c2ccc(-c3nc4cc(C(F)(F)F)ccc4[nH]3)s2)c1)c1c[nH]cn1 | 1110
CC(C)C[C@H](NC(=O)c1cc(-c2ccc(C(C)(C)C)cc2)no1)C(=O)O.CC(C)C[C@H](NC(=O)c1conc1-c1ccc(C(C)(C)C)cc1)C(=O)O | 186
COc1ccc2nccc([C@@H](O)CN3CCC(NCc4cc5oc(=O)[nH]c5cc4Cl)CC3)c2c1 | 380
CN1CCN(CCCN(Cc2ccc(-c3ccc(CNCc4ccc5c(c4)OCO5)cc3)cc2)C(=O)Nc2ccccc2)CC1 | 707
COc1ccc(C(=O)C2CC2CN2CC=C(c3c[nH]c4ccccc34)CC2)cc1 (configuration not stated) | 532
CC1(C)NC(N)=NC(=N)N1OCCCOc1ccccc1N | 3.2
CS(=O)(=O)N(c1ccccc1)c1cc(C(=O)N[C@@H](Cc2ccccc2)[C@H](O)CNC2CCCCC2)cc(N2CCCC2=O)c1 | 78.1
CC(C)(C)c1ccc(S(=O)(=O)Nc2ccccc2Cn2nc(N3CCNCC3)ccc2=O)cc1 | 846

Structure (SMILES) | XC50 [nM]
Nc1nc(N)c2c(Cl)c(N3CCOCC3)ccc2n1 | 76.9
NC1CCN(c2nc(NCCCc3ccc(O)cc3)nc(NCc3ccccc3-c3ccccc3)n2)CC1 | 678
O=C(Nc1nc(-c2ccccn2)cs1)c1ccccc1COc1ccccc1 | 972
COc1ccc(Nc2ncc3c(-c4cccc(NC(=O)Cc5cccnc5)c4)c[nH]c3n2)cc1OC | 718
c1cc(COc2ccc(C3=NCCN3)cc2)nc(COc2ccc(C3=NCCN3)cc2)c1 | 147
O=C(Nc1ccc(Cl)cn1)c1sc2ccccc2c1O | 1040
CCCCCCCCNCc1c(O)ccc2ccccc12 | 739
O=C(Nc1ccc(-c2ccccc2)cc1)Nc1cccc(Cn2ncc(N3CCCNCC3)c(Cl)c2=O)c1 | 225
Fc1cc(Cl)ccc1Nc1ccnc2cc(-c3ccc(CN4CCCCC4)o3)ccc12 | 337
CCCCC(=O)Nc1nc2ccc([N+](=O)[O-])cc2s1 | 756
O=C(/C=C/c1ccc(-c2ccccc2)cc1)NCCCCCN1CCC(c2c[nH]c3ccccc23)CC1 | 854
CN(C)CCOc1cc(NC(=O)Nc2ccc(-c3ccncc3)c(Cl)c2)ccc1I | 143
CCC(C)Oc1ccc(CCCON2C(N)=NC(N)=NC2(C)C)cc1 (configuration not stated) | 3.2
Nc1ncc(-c2cccc(CCN3CCOCC3)c2)cc1-c1nc2cc(Br)ccc2[nH]1 | 277
CCn1c(-c2nonc2N)nc2c(-c3ccc(CO)o3)ncc(OCCCN)c21 | 1360
CC1(C)C2C=C(CN3CCC(NC(=O)Nc4ccc(Cl)c(Cl)c4)CC3)C1CC2 (configuration not stated) | 761
CN(C)c1cccc2c(S(=O)(=O)Nc3cccc(CCN4CCC(N5CCCCC5)CC4)c3)cccc12 | 979
CC(C)C[C@H](NC(=O)c1ccc(OCCN2CCOCC2)cc1)C(=O)NC(/C=N/N1CCCC1=O)C(C)C (some centres not stated) | 248
CNc1nc(N/N=C/c2cc3c(cc2[N+](=O)[O-])OCO3)nc(Nc2cccc(C(F)(F)F)c2)n1 | 771
COc1cc(CNC[C@@H](O)[C@H](Cc2ccccc2)NC(=O)c2cc(C3CCCC3)cc(N3CCCC3=O)c2)cc(OC)c1 | 224
Cn1cnc(CCNC(=O)c2ccc(-c3cccc(-c4nc5cc(C(F)(F)F)ccc5[nH]4)c3)cc2)c1 | 726
CC(C)CCN1CCCN(Cc2ccc(C(=O)Nc3ccc(F)c(F)c3)cc2)CC1 | 944
